Several values for one entry are separate records, joined by “and”; a condition that tells them apart may be missing. Equal values may be shown once. Read-outs that look alike come from different tables or passages of the source.
Columns and labels:
EGFR^DM (T790M/L858R) = EGFR^DM (T790M/L858R) (Homo sapiens, UniProt P00533, L858R/T790M); experiment: EGFR^DM in-house Kinase-Glo assay; format: biochemical
AXL = molecular target: T1, AXL (Homo sapiens, UniProt P30530); experiment: AXL enzyme inhibition assay (ADP-Glo); format: biochemical
T1 construct: A purified kinase (MER or AXL) was incubated with a compound or DMSO
T1 sequence (P30530 26-894): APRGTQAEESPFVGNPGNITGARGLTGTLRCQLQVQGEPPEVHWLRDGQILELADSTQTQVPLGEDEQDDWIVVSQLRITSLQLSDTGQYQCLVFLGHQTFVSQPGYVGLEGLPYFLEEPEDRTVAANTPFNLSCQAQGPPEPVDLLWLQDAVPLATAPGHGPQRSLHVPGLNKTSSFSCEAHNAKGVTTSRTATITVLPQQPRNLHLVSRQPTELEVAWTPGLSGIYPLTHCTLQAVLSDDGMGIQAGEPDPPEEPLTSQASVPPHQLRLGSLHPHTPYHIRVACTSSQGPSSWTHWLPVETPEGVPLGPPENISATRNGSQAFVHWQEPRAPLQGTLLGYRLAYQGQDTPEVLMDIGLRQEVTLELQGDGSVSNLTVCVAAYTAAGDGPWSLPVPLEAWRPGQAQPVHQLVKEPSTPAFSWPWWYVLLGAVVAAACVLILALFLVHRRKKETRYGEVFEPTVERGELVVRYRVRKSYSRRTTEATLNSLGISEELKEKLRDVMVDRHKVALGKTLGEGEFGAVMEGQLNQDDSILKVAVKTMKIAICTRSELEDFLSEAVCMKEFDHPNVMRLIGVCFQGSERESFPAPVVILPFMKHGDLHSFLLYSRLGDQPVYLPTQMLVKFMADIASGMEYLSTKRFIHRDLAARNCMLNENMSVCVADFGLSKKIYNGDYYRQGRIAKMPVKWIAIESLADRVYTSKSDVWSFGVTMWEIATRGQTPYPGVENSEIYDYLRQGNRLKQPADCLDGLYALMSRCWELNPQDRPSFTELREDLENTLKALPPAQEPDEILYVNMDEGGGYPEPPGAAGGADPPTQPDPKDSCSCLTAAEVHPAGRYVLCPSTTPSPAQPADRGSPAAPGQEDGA

EGFR^WT = EGFR^WT (Homo sapiens, UniProt P00533); experiment: EGFR^WT in-house Kinase-Glo assay; format: biochemical
MER = molecular target: T2, MER (Homo sapiens, UniProt Q12866); experiment: MER enzyme inhibition assay (in-house Kinase-Glo); format: biochemical
T2 construct: A purified kinase (MER or AXL) was incubated with a compound or DMSO
T2 sequence (Q12866 21-999): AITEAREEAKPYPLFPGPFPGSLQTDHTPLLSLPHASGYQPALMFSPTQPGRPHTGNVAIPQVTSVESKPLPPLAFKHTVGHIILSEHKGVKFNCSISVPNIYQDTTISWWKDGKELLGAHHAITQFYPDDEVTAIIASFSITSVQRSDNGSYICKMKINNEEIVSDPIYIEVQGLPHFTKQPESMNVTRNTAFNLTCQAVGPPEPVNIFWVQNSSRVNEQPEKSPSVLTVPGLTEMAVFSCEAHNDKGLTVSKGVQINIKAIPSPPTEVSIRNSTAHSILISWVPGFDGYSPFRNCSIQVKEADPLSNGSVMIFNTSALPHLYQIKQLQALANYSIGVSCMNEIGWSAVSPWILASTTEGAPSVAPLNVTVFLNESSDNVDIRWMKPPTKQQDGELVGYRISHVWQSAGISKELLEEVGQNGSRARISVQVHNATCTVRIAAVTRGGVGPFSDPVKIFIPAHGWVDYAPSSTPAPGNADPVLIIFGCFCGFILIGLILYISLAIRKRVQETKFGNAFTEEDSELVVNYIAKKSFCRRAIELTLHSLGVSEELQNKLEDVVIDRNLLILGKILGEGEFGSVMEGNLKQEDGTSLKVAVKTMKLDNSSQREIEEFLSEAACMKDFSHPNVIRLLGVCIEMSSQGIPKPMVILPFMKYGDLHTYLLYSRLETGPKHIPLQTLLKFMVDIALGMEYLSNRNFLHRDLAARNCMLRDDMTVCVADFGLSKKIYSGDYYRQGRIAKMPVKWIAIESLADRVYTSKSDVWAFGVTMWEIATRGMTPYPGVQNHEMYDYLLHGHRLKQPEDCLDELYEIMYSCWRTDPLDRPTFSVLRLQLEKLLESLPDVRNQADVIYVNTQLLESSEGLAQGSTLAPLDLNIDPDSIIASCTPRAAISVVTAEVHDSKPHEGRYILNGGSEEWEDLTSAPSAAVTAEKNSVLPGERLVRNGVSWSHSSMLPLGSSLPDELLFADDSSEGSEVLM

Ba/F3-MER cells = experiment: Cell viability assay (MTS); format: cell-based; details: 72 h
[1] = In vivo pharmacokinetics study; details: mice; for clearance at 24 h: read-out: iv CL; for Vd at 24 h: read-out: iv Vss; for iv DNAUC(0–inf) / po DNAUC(0–inf) / po DNCmax: dose-normalized
Description: The animal studies were performed according to NHRI institutional animal care and committee-approved procedures. Male ICR mice (25–35 g) were obtained from BioLASCO (Taiwan Co., Ltd., Ilan, Taiwan). […] All samples were analyzed for the parent drug by LC-MS/MS. Plasma concentration data were analyzed with a noncompartmental method.

[2] = In vitro microsomal stability assay; format: in vitro ADME; details: 1 μM, mouse liver microsomes, percent remaining at 30 min
Description: All incubations were initiated with the addition of NADPH-generating system at 37 °C for 30 min. At 0 and the end of incubation, 100 μL of aliquots were taken from the incubation mixture and placed into centrifuge tubes containing 100 μL of ice-cold acetonitrile to terminate the metabolic reaction. The samples were vortexed and centrifuged, and then, the supernatant injected onto LC/MS. Percent of remaining of each compound was calculated by comparing peak areas at 30 min to that at the initiation of incubation.

[3] = male, ICR, mouse, plasma, iv 2 mg/kg
[4] = male, ICR, mouse, plasma, iv 2 mg/kg, read-out: iv T1/2 (converted)
[5] = male, ICR, mouse, plasma, iv 2 mg/kg, po 10 mg/kg
[6] = male, ICR, mouse, plasma, po 10 mg/kg
[7] = male, ICR, mouse, plasma, po 10 mg/kg, read-out: po T1/2 (converted)

Compound	IC50 (Ba/F3-MER cells)	clearance at 24 h [1, 3]	half-life at 24 h [1, 4]	Vd at 24 h [1, 3]	iv DNAUC(0–inf) ([1]; iv 2 mg/kg)	Microsomal stability @ 30 min [2]	EGFR^DM inh. @ 1 μM (EGFR^DM (T790M/L858R))	AXL inh. @ 1 μM (AXL)	EGFR^WT inh. @ 1 μM (EGFR^WT)	MER inh. @ 1 μM (MER)	further results
CNc1cccc(-c2c(-c3cnn(C)c3)oc3ncnc(Oc4ccc(NC(=O)c5cccn(-c6ccc(F)cc6)c5=O)cc4)c23)c1 [Compound 29, 1-(4-Fluorophenyl)-N-[4-({5-[3-(methylamino)phenyl]-6-(1-methyl-1H-pyrazol-4-yl)furo[2,3-d]pyrimidin-4-yl}oxy)phenyl]-2-oxo-1,2-dihydropyridine-3-carboxamide]	1.2 nM	5.3 mL/min/kg	510 min	1.3 L/kg	3,330.5 ng × hr/mL	100%	–	–	–	–	bioavailability at 24 h [1, 5]: 0.5%; Tmax at 24 h [1, 6]: 24 h; po DNAUC(0–inf) ([1]; po 10 mg/kg): 15.3 ng·h/mL; po DNCmax ([1]; po 10 mg/kg): 1.4 ng/mL
Cn1cc(-c2oc3ncnc(Oc4ccc(NC(=O)c5cccn(-c6ccc(F)cc6)c5=O)cc4)c3c2-c2cccc(CN)c2)cn1 [Compound 31, N-[4-({5-[3-(Aminomethyl)phenyl]-6-(1-methyl-1H-pyrazol-4-yl)furo[2,3-d]pyrimidin-4-yl}oxy)phenyl]-1-(4-fluorophenyl)-2-oxo-1,2-dihydropyridine-3-carboxamide]	7.6 nM	35.1 mL/min/kg	378 min	9.9 L/kg	483.0 ng·h/mL	77%	–	–	–	–	–
CN(C)Cc1ccc(-c2c(-c3cnn(C)c3)oc3ncnc(Oc4ccc(NC(=O)c5cccn(-c6ccc(F)cc6)c5=O)cc4)c23)cc1 [Compound 39, N-{4-[(5-{4-[(Dimethylamino)methyl]phenyl}-6-(1-methyl-1H-pyrazol-4-yl)furo[2,3-d]pyrimidin-4-yl)oxy]phenyl}-1-(4-fluorophenyl)-2-oxo-1,2-dihydropyridine-3-carboxamide]	–	84 mL/min/kg	672 min	8 L/kg	208.0 ng·h/mL	67%	–	–	–	–	bioavailability [1, 5]: > 20%; bioavailability at 24 h [1, 5]: 26.2%; Tmax at 24 h [1, 6]: 2 h; half-life at 24 h [1, 7]: 144 min; po DNAUC(0–inf) ([1]; po 10 mg/kg): 54.4 ng·h/mL; po DNCmax ([1]; po 10 mg/kg): 5.7 ng/mL
(4-{[5-(3-Aminophenyl)-6-phenylfuro[5,4-d]pyrimidin-4-yl]oxy}phenyl)-N-(phenylacetyl)carbamothioic amide [Compound 16]	1140 nM	–	–	–	–	–	−6%	95%	1%	9%	–
N^1-(4-{[5-(3-Aminophenyl)-6-phenylfuro[2,3-d]pyrimidin-4-yl]amino}phenyl)-N^1-(4-fluorophenyl)cyclopropane-1,1-dicarboxamide [Compound 15]	713 nM	–	–	–	–	–	−4%	92%	1%	19%	–
N^1-(4-{[5-(3-Aminophenyl)-6-phenylfuro[2,3-d]pyrimidin-4-yl]oxy}phenyl)-N^1-(4-fluorophenyl)cyclopropane-1,1-dicarboxamide [Compound 12]	73.6 nM	–	–	–	–	–	−9%	100%	0%	71%	–
N^1-{4-[(5,6-Diphenylfuro[2,3-d]pyrimidin-4-yl)oxy]phenyl}-N^1-(4-fluorophenyl)cyclopropane-1,1-dicarboxamide [Compound 13]	658 nM	–	–	–	–	–	2%	98%	3%	41%	–

Further lines, with some results ahead:

IC50 (Ba/F3-MER cells)	clearance at 24 h [1, 3]	half-life at 24 h [1, 4]	Vd at 24 h [1, 3]	iv DNAUC(0–inf) ([1]; iv 2 mg/kg)	Microsomal stability @ 30 min [2]	EGFR^DM inh. @ 1 μM (EGFR^DM (T790M/L858R))	AXL inh. @ 1 μM (AXL)	EGFR^WT inh. @ 1 μM (EGFR^WT)	MER inh. @ 1 μM (MER)	Compound	further results
8.4 nM and 8.2 nM	–	–	–	–	–	–	–	–	–	Nc1cccc(-c2c(-c3ccccc3)oc3ncnc(Oc4ccc(NC(=O)c5cccn(-c6ccc(F)cc6)c5=O)cc4)c23)c1 [Compound 17, N-(4-{[5-(3-Aminophenyl)-6-phenylfuro[5,4-d]pyrimidin-4-yl]oxy}phenyl)-1-(4-fluorophenyl)-2-oxo-1,2-dihydropyridine-3-carboxamide]	inhibition at 1 µM (EGFR^DM (T790M/L858R); read-out: EGFR^DM inh. @ 1 μM): -1%; inhibition at 1 µM (AXL; read-out: AXL inh. @ 1 μM): 100%; inhibition at 1 µM (EGFR^WT; read-out: EGFR^WT inh. @ 1 μM): 1%; inhibition at 1 µM (MER; read-out: MER inh. @ 1 μM): 70%
1 nM	20.5 mL/min/kg	762 min	10.5 L/kg	766.5 ng·h/mL	91%	–	–	–	–	CC(=O)Nc1cccc(-c2c(-c3cnn(C)c3)oc3ncnc(Oc4ccc(NC(=O)c5cccn(-c6ccc(F)cc6)c5=O)cc4)c23)c1 [Compound 28, N-[4-({5-[3-(Acetylamino)phenyl]-6-(1-methyl-1H-pyrazol-4-yl)furo[2,3-d]pyrimidin-4-yl}oxy)phenyl]-1-(4-fluorophenyl)-2-oxo-1,2-dihydropyridine-3-carboxamide]	–
8.4 nM	42.9 mL/min/kg	402 min	14.2 L/kg	454.5 ng·h/mL	83%	–	–	–	–	Cn1cc(-c2oc3ncnc(Oc4ccc(NC(=O)c5cccn(-c6ccc(F)cc6)c5=O)cc4)c3c2-c2cccc(N3CCNCC3)c2)cn1 [Compound 34, 1-(4-Fluorophenyl)-N-[4-({6-(1-methyl-1H-pyrazol-4-yl)-5-[3-(piperazin-1-yl)phenyl]furo[2,3-d]pyrimidin-4-yl}oxy)phenyl]-2-oxo-1,2-dihydropyridine-3-carboxamide]	IC50 (AXL): 12.1 nM; IC50 (MER): 2.1 nM; bioavailability at 24 h [1, 5]: 0.6%; Tmax [1, 6]: 2.2 h; half-life at 24 h [1, 7]: 282 min; po DNAUC(0–inf) ([1]; po 10 mg/kg): 2.6 ng·h/mL; po DNCmax ([1]; po 10 mg/kg): 0.7 ng/mL
3630 nM	–	–	–	–	–	1%	53%	4%	4%	N^1-(4-Fluorophenyl)-N^1-{4-[(6-phenylfuro[2,3-d]pyrimidin-4-yl)oxy]phenyl}cyclopropane-1,1-dicarboxamide [Compound 14]	–
